Experiments:
[1] = shake flask on a mixture of 185; loss from the water phase only; LC-QTOF peak areas; settings: room
[2] = shake flask on a mixture of 185; loss from the water phase only; LC-Orbitrap peak areas; settings: room

log partition 1-octanol / HPLC water, unbuffered, traces of methanol / DMSO [2]	log partition butyl acetate / HPLC water, unbuffered, traces of methanol / DMSO [2]	log partition chloroform / HPLC water, unbuffered, traces of methanol / DMSO [2]	log partition cyclohexane / HPLC water, unbuffered, traces of methanol / DMSO [2]	log partition dichloromethane / HPLC water, unbuffered, traces of methanol / DMSO [2]	log partition n-hexane / HPLC water, unbuffered, traces of methanol / DMSO [2]	log partition n-octane / HPLC water, unbuffered, traces of methanol / DMSO [2]	log partition n-undecane / HPLC water, unbuffered, traces of methanol / DMSO [2]	log partition oleylalcohol / HPLC water, unbuffered, traces of methanol / DMSO [2]	log partition toluene / HPLC water, unbuffered, traces of methanol / DMSO [2]	Structure (SMILES)	log partition 1-octanol / HPLC water, unbuffered, traces of methanol / DMSO [1]	log partition butyl acetate / HPLC water, unbuffered, traces of methanol / DMSO [1]	log partition chloroform / HPLC water, unbuffered, traces of methanol / DMSO [1]	log partition cyclohexane / HPLC water, unbuffered, traces of methanol / DMSO [1]	log partition dichloromethane / HPLC water, unbuffered, traces of methanol / DMSO [1]	log partition n-hexane / HPLC water, unbuffered, traces of methanol / DMSO [1]	log partition n-octane / HPLC water, unbuffered, traces of methanol / DMSO [1]	log partition n-undecane / HPLC water, unbuffered, traces of methanol / DMSO [1]	log partition oleylalcohol / HPLC water, unbuffered, traces of methanol / DMSO [1]	log partition toluene / HPLC water, unbuffered, traces of methanol / DMSO [1]
1.225 log10	0.9932 log10	1.423 log10	0.1846 log10	0.6345 log10	-0.08609 log10	0.2702 log10	0.118 log10	-0.1437 log10	0.6204 log10	C[C@H](CCC(=O)O)[C@H]1CC[C@H]2[C@@H]3CC[C@@H]4C[C@H](O)CC[C@]4(C)[C@H]3CC[C@]12C	0.06003 log10	-0.5367 log10	0.5205 log10	-1.544 log10	0.7072 log10	-1.606 log10	-1.699 log10	-0.8435 log10	-0.1203 log10	-1.053 log10
1.274 log10	1.798 log10	2.228 log10	0.6608 log10	2.4 log10	0.3087 log10	0.3589 log10	0.261 log10	0.9359 log10	1.703 log10	Cc1ccc([N+](=O)[O-])cc1S(=O)(=O)O	2.399 log10	2.641 log10	2.843 log10	0.5479 log10	2.477 log10	0.3824 log10	0.4393 log10	0.4122 log10	2.608 log10	2.304 log10

Structure (SMILES)	log partition 1-octanol / HPLC water, unbuffered, traces of methanol / DMSO [2]	log partition butyl acetate / HPLC water, unbuffered, traces of methanol / DMSO [2]	log partition chloroform / HPLC water, unbuffered, traces of methanol / DMSO [2]	log partition cyclohexane / HPLC water, unbuffered, traces of methanol / DMSO [2]	log partition dichloromethane / HPLC water, unbuffered, traces of methanol / DMSO [2]	log partition n-hexane / HPLC water, unbuffered, traces of methanol / DMSO [2]	log partition n-octane / HPLC water, unbuffered, traces of methanol / DMSO [2]	log partition n-undecane / HPLC water, unbuffered, traces of methanol / DMSO [2]	log partition oleylalcohol / HPLC water, unbuffered, traces of methanol / DMSO [2]	log partition toluene / HPLC water, unbuffered, traces of methanol / DMSO [2]	log partition 1-octanol / HPLC water, unbuffered, traces of methanol / DMSO [1]	log partition butyl acetate / HPLC water, unbuffered, traces of methanol / DMSO [1]	log partition chloroform / HPLC water, unbuffered, traces of methanol / DMSO [1]	log partition cyclohexane / HPLC water, unbuffered, traces of methanol / DMSO [1]	log partition dichloromethane / HPLC water, unbuffered, traces of methanol / DMSO [1]	log partition n-hexane / HPLC water, unbuffered, traces of methanol / DMSO [1]	log partition n-octane / HPLC water, unbuffered, traces of methanol / DMSO [1]	log partition n-undecane / HPLC water, unbuffered, traces of methanol / DMSO [1]	log partition oleylalcohol / HPLC water, unbuffered, traces of methanol / DMSO [1]	log partition toluene / HPLC water, unbuffered, traces of methanol / DMSO [1]
CN/C(=N/[N+](=O)[O-])NCC1CCOC1 (stereo not drawn)	0.006708 log10	0.08365 log10	0.01252 log10	-0.8947 log10	0.2723 log10	-0.6643 log10	-1.349 log10	-1.639 log10	-0.3931 log10	-0.3042 log10	-0.7277 log10	-1.391 log10	-0.45 log10	-1.158 log10	-0.07832 log10	-1.181 log10	-1.698 log10	-1.902 log10	-1.007 log10	-1.236 log10
